A value given as a limit tells only on which side of the number the result lay.

T1 sequence (Q05397 376-1052): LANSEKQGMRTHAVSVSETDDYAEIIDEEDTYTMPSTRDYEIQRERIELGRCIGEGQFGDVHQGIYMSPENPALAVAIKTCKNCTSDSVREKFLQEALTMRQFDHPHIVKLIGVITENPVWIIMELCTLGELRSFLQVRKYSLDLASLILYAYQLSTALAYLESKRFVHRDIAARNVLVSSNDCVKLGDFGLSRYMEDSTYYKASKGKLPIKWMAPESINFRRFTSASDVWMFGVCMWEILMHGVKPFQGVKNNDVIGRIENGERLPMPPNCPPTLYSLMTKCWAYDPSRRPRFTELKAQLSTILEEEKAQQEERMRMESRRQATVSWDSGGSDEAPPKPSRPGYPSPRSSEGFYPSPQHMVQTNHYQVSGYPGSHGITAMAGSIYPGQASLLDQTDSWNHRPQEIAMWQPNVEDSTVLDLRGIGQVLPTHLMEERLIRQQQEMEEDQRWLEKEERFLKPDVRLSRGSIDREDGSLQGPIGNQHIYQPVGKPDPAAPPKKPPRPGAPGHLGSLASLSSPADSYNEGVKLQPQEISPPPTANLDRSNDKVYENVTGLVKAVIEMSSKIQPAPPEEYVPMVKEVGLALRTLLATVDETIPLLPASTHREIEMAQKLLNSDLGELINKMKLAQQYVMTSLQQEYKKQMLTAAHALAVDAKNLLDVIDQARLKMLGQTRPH

The first test addresses T1, GST-FAK (N-terminal GST fusion with truncated human FAK (376-1052 (end) amino acids)) (Homo sapiens, UniProt Q05397).
T1 construct: truncated human FAK (376-1052 (end) amino acids)
Kind of test: Biochemical enzyme assay for FAK activity (Caliper LC3000 mobility shift). As to conditions: Table 1; 100 uM ATP; read-out: FAK IC50. Here is the method:
1. Biochemical Enzyme Assays for FAK Activity
The FAK assays described here are performed on two Caliper Life Sciences systems, the LC3000 and the EZ Reader II. These provide data on enzyme activity via measurement of the relative amounts of phosphorylated or unphosphorylated fluorescently labelled substrate peptide at the end of an enzymatic reaction. These different states of peptide are resolved by applying a potential difference across the sample. The presence of the charged phosphate group on the product (as opposed to the substrate) causes different peptide mobility between the two peptides. This is visualized by excitation of the fluorescent label on the substrate and product peptides and represented as peaks within the analysis software.
In order to measure inhibitor activity of FAK, inhibitors in the Caliper Life Sciences LC3000, a TTP Mosquito liquid handling instrument is used to place 0.25 ul of the appropriate concentration of inhibitor in 100% DMSO (for a dose response curve calculation) into each well of a 384-well plate. To this reaction components are added to a final volume of 25 ul: • 0.067 ng/ul GST-FAK (N-terminal GST fusion with truncated human FAK (376-1052 (end) amino acids)) • 100 uM ATP • 1 mM DTT • 1 mM MgCl2 • 1 uM substrate peptide (sequence FITC-KGWMEDYDYVHLQGKK-(CONH2)SEQ ID NO: 1)) • 1 mM FERM peptide (sequence NH2-GATQSFIIR-COOH (SEQ ID NO: 2)) • 100 mM HEPES pH 7.5 • 0.015% Brij-35
The reaction is incubated for 90 min at 25 C, and then stopped by the addition of 70 ul of Stop buffer (100 mM HEPES pH 7.5, 0.015% Brij-35, 10 mM EDTA).
The plate is read on a Caliper LC 3000 in an Off-Chip mobility shift assay format, using the following parameters for a 12-sipper chip: screening pressure—1.9 psi, upstream voltage—3000, downstream voltage—700. These conditions cause unphosphorylated substrate and phosphorylated product peptide to resolve as separate peaks allowing direct measurement of percentage of conversion of substrate to product. The percent conversion can be plotted against concentration of inhibitor to produce a sigmoid dose response curve, from which an IC50 can be calculated using XLFit for Microsoft Excel.
The IC50 is the concentration that inhibits the measured activity by half. In the case of `FC(F)(F)c1cncc(-c2nccc(NCc3cccc(-n4cccn4)c3)n2)c1` [Compound 29, (3-Pyrazol-1-yl-benzyl)-[2-(5-trifluoromethyl-pyridin-3-yl)-pyrimidin-4-yl]-amine], the half-inhibitory concentration (IC50) lay in the range of 1 to 10 µM. On to `Clc1cncc(-c2nccc(NCc3cccc(Oc4cnccn4)c3)n2)c1` [Compound 19, [2-(5-Chloro-pyridin-3-yl)-pyrimidin-4-yl]-[3-(pyrazin-2-yloxy)-benzyl]-amine], for which the IC50 is over 10 µM.

Regarding `Fc1cc(Cl)ccc1CNc1ccnc(-c2cncc(Cl)c2)n1` [Compound 32, (4-Chloro-2-fluoro-benzyl)-[2-(5-chloro-pyridin-3-yl)-pyrimidin-4-yl]-amine], the IC50 is under 0.1 µM. As for `COc1cncc(-c2nccc(NCc3ccc(OC)c(F)c3F)n2)c1` [Compound 1, (2,3-Difluoro-4-methoxy-benzyl)-[2-(5-methoxy-pyridin-3-yl)-pyrimidin-4-yl]-amine], the IC50 lay within 1 to 10 µM.

Staying with this test, now noted: Table 3; 100 uM ATP; read-out: FAK IC50.
`Nc1ncccc1-c1nccc(NCc2cccc3ccnn23)n1` [Compound 135, 2-(2-Aminopyridin-3-yl)-N-(pyrazolo[1,5-a]pyridin-7-ylmethyl)pyrimidin-4-amine]: the IC50 is over 10 µM. Same read-out and setting: for `Cc1cc(NCc2ccccc2)nc(-c2cccnc2)n1` [Compound 141, N-Benzyl-6-methyl-2-pyridin-3-ylpyrimidin-4-amine] the value was over 10 µM; for `Nc1ncccc1-c1nccc(NCc2cccc3nsnc23)n1` [Compound 117, 2-(2-Aminopyridin-3-yl)-N-(2,1,3-benzothiadiazol-4-ylmethyl)pyrimidin-4-amine], 0.1 to 1 µM; for `CN(C)c1ccccc1CNc1ccnc(-c2cccnc2N)n1` [Compound 91, 2-(2-Aminopyridin-3-yl)-N-[2-(dimethylamino)benzyl]pyrimidin-4-amine], 1 to 10 µM.

As to `Nc1ncccc1-c1nccc(NCc2ccccc2Cl)n1` [Compound 86, 2-(2-Aminopyridin-3-yl)-N-(2-chlorobenzyl)pyrimidin-4-amine], the IC50 lay in the range of 0.1 to 1 µM. Take `CNC[C@H](Nc1ccnc(-c2cccnc2N)n1)c1ccccc1` [Compound 147, (R)-N1-[2-(2-Amino-pyridin-3-yl)-pyrimidin-4-yl]-N2-methyl-1-phenyl-ethane-1,2-diamine]: the IC50 was over 10 µM. Still for that read-out and setting: for `Nc1ncccc1-c1nccc(NCc2cccc3c2OCO3)n1` [Compound 122, 2-(2-Aminopyridin-3-yl)-N-(1,3-benzodioxol-4-ylmethyl)pyrimidin-4-amine] the value was 0.1 to 1 µM. Still for that read-out and setting: for `Cc1ccccc1CNc1ccnc(-c2cccnc2N)n1` [Compound 82, 2-(2-Aminopyridin-3-yl)-N-(2-methylbenzyl)pyrimidin-4-amine] the value was 1 to 10 µM; for `Nc1ncccc1-c1nccc(NCc2cnccc2C(F)(F)F)n1` [Compound 103, 2-(2-Aminopyridin-3-yl)-N-{[4-(trifluoromethyl)pyridin-3-yl]methyl}pyrimidin-4-amine], 1 to 10 µM.

Still in this test, the particulars now being: Table 4; 100 uM ATP; read-out: IC50 FAK.
Regarding `CS(=O)(=O)n1cc(Nc2ccnc(-c3cncc(C(F)(F)F)c3)n2)cn1` [Compound 182, N-(1-methylsulfonylpyrazol-4-yl)-2-[5-(trifluoromethyl)-3-pyridyl]pyrimidin-4-amine], the IC50 lay within 0.1 to 1 µM.

Staying with this test, now noted: Table 5; 100 uM ATP; read-out: FAK IC50.
On to `CNC(=O)C(Nc1ccnc(-c2cncc(C(F)(F)F)c2)n1)c1ccc(O)cc1` (stereo not drawn) [Compound 269, 2-(4-Hydroxy-phenyl)-N-methyl-2-[2-(5-trifluoromethyl-pyridin-3-yl)-pyrimidin-4-ylamino]-acetamide], for which the IC50 is over 10 µM. `CN(C)C(=O)c1cc(NCc2ccc(F)cc2F)nc(-c2cncc(C(F)(F)F)c2)n1` [Compound 264, 6-(2,4-Difluoro-benzylamino)-2-(5-trifluoromethyl-pyridin-3-yl)-pyrimidine-4-carboxylic acid dimethylamide]: the IC50 is under 0.1 µM. On the same count and under the same terms, for `COc1cncc(-c2nccc(NCc3cc(C)nn3C)n2)c1` [Compound 222, (2,5-Dimethyl-2H-pyrazol-3-ylmethyl)-[2-(5-methoxy-pyridin-3-yl)-pyrimidin-4-yl]-amine] the value was over 10 µM; for `COc1cncc(-c2nccc(NCc3cccc(C#N)c3)n2)c1` [Compound 225, 3-{[2-(5-Methoxy-pyridin-3-yl)-pyrimidin-4-ylamino]-methyl}-benzonitrile], 1 to 10 µM; for `Fc1ccc(CNc2ccnc(-c3cccnc3)n2)c(F)c1` [Compound 210, (2,4-Difluoro-benzyl)-(2-pyridin-3-yl-pyrimidin-4-yl)-amine], 0.1 to 1 µM.

In the case of `Fc1ccc(CNc2ccnc(-c3cccc(C(F)(F)F)c3)n2)c(F)c1` [Compound 240, (2,4-Difluoro-benzyl)-[2-(3-trifluoromethyl-phenyl)-pyrimidin-4-yl]-amine], the IC50 is over 10 µM. `Fc1ccc(-c2nccc(NCc3ccccc3F)n2)cn1` [Compound 207, (2-Fluoro-benzyl)-[2-(6-fluoro-pyridin-3-yl)-pyrimidin-4-yl]-amine]: the IC50 was over 10 µM.

As for `CS(=O)(=O)Nc1cccc(-c2nc(NCc3ccc(F)cc3F)c3ncn(C4CCCCO4)c3n2)c1` (stereo not drawn) [Compound 242, N-{3-[6-(2,4-Difluoro-benzylamino)-9-(tetrahydro-pyran-2-yl)-9H-purin-2-yl]-phenyl}-methanesulfonamide], the IC50 was over 10 µM. On to `O=C(c1cc(NCc2ccc(F)cc2F)nc(-c2cncc(C(F)(F)F)c2)n1)N1CCOCC1` [Compound 260, [6-(2,4-Difluoro-benzylamino)-2-(5-trifluoromethyl-pyridin-3-yl)-pyrimidin-4-yl]-morpholin-4-yl-methanone], for which the half-maximal inhibitory concentration (IC50) is under 0.1 µM. The same measure, in the same setting: for `FC(F)(F)c1cncc(-c2nccc(NCc3ccccn3)n2)c1` [Compound 219, Pyridin-2-ylmethyl-[2-(5-trifluoromethyl-pyridin-3-yl)-pyrimidin-4-yl]-amine] the value was 0.1 to 1 µM; for `Cn1cc(-c2cc(NCc3ccc(F)cc3F)nc(-c3cnn(C)c3)n2)cn1` [Compound 258, [2,6-Bis-(1-methyl-1H-pyrazol-4-yl)-pyrimidin-4-yl]-(2,4-difluoro-benzyl)-amine], 1 to 10 µM; for `Fc1cnc(CNc2ccnc(-c3cncc(C(F)(F)F)c3)n2)c(F)c1` [Compound 209, (3,5-Difluoro-pyridin-2-ylmethyl)-[2-(5-trifluoromethyl-pyridin-3-yl)-pyrimidin-4-yl]-amine], under 0.1 µM. `CS(=O)(=O)Nc1cccc(-c2nccc(NCc3ccc(F)cc3F)n2)c1` [Compound 241, N-{3-[4-(2,4-Difluoro-benzylamino)-pyrimidin-2-yl]-phenyl}-methanesulfonamide]: the IC50 was over 10 µM. Still for that read-out and setting: for `O=C1c2ccccc2CN1c1ccnc(-c2cncc(C(F)(F)F)c2)n1` [Compound 235, 2-[2-(5-Trifluoromethyl-pyridin-3-yl)-pyrimidin-4-yl]-2,3-dihydro-isoindol-1-one] the value was over 10 µM; for `COc1cncc(-c2nccc(NCCc3ccccc3OC)n2)c1` [Compound 202, [2-(2-Methoxy-phenyl)-ethyl]-[2-(5-methoxy-pyridin-3-yl)-pyrimidin-4-yl]-amine], 1 to 10 µM; for `CS(=O)(=O)Nc1cccc(-c2nc(NCc3ccc(F)cc3F)c3nc[nH]c3n2)c1` [Compound 236, N-{3-[6-(2,4-Difluoro-benzylamino)-9H-purin-2-yl]-phenyl}-methanesulfonamide], over 10 µM.

Values taken from patent US9199962B2, “Substituted azaheterocycles for the treatment of cancer” (Merck Patent GmbH, priority 2011, dated 2015).
